What was measured:
[1] = tested on: doxorubicin-sensitive Colo 205 colonic adenocarcinoma cells; test: MTT antiproliferative assay (72 h), Colo 205; format: cell-based, human; settings: read-out: Antiproliferative IC50, Colo205
Description: (§1) Human colonic adenocarcinoma cell lines (Colo 205 doxorubicin-sensitive and Colo 320/MDR-LRP multidrug-resistant expressing ABCB1 (MDR1)-LRP), ATCC-CCL-220.1 (Colo 320) and CCL-222 (Colo 205) were purchased from LGC Promochem, Teddington, UK. The cells were cultured in RPMI 1640 medium supplemented with 10% heat-inactivated foetal bovine serum, 2 mM L-glutamine, 1 mM Na-pyruvate and 100 mM Hepes. The cell lines were incubated at 37 °C, in a 5% CO2, 95% air atmosphere. The semi-adherent human colon cancer cells were detached with Trypsin-Versene (EDTA) solution for 5 min at 37 °C.
(§2) MRC-5 non-cancerous human embryonic lung fibroblast and human colonic adenocarcinoma cell lines (doxorubicin-sensitive Colo 205 and multidrug-resistant Colo 320 colonic adenocarcinoma cells) were used to determine the effect of compounds on cell proliferation and growth. The effects of increasing concentrations of compounds on cell proliferation and growth were tested in 96-well flat-bottomed microtitre plates. The compounds were diluted in a volume of 100 μL of medium.
(§3) In case of the colonic adenocarcinoma cells, the 2-fold serial dilutions of compounds were prepared in 100 μL of RPMI 1640, horizontally. The semi-adherent colonic adenocarcinoma cells were treated with Trypsin-Versene (EDTA) solution. The density of the cells was adjusted to 6 × 10^3 cells (antiproliferative assay) or 1 × 10^4 cells (cytotoxicity assay) in 100 μL of RPMI 1640 medium, and was added to each well, with the exception of the medium control wells. The final volume of the wells containing compounds and cells was 200 μL.
(§4) The culture plates were incubated at 37 °C for 72 h (antiproliferative test) or 24 h (cytotoxicity test); at the end of the incubation period, 20 μL of MTT (thiazolyl blue tetrazolium bromide, Sigma, St. Louis, MO, USA) solution (from a stock solution of 5 mg/mL) were added to each well. After incubation at 37 °C for 4 h, 100 μL of sodium dodecyl sulphate (SDS) (Sigma) solution (10% in 0.01 M HCI) were added to each well and the plates were further incubated at 37 °C overnight. Cell growth was determined by measuring the optical density (OD) at 540/630 nm with Multiscan EX ELISA reader (Thermo Labsystems, Cheshire, WA, USA). Inhibition of the cell growth was determined according to the formula below: Inhibition %=100−[OD sample−OD medium control/OD cell control−OD medium control]×100
(§5) Results are expressed in terms of IC50, defined as the inhibitory dose that reduces the growth of the cells exposed to the tested compounds by 50%.

[2] = tested on: multidrug-resistant Colo 320 colonic adenocarcinoma cells; test: MTT cytotoxicity assay (24 h), Colo 320; format: cell-based; settings: Homo sapiens, COLO 320, 24 h, 24 h incubation, read-out: Cytotoxicity IC50, Colo320
Description: as §1, §2, §3, §4, §5

[3] = tested on: multidrug-resistant Colo 320 colonic adenocarcinoma cells; test: MTT antiproliferative assay (72 h), Colo 320; format: cell-based, human; settings: for IC50: MTT, 72 h incubation, read-out: Antiproliferative IC50, Colo320; for selectivity index (SI), antiproliferative: Colo320 versus MRC-5, cell proliferation inhibition
Description: as §1, §2, §3, §4, §5

[4] = tested on: doxorubicin-sensitive Colo 205 colonic adenocarcinoma cells; test: MTT cytotoxicity assay (24 h), Colo 205; format: cell-based, human; settings: Homo sapiens, COLO 205; MTT, 24 h incubation; read-out: Cytotoxicity IC50, Colo205
Description: as §1, §2, §3, §4, §5

[5] = tested on: multidrug-resistant Colo 320 colonic adenocarcinoma cells expressing the ABCB1 transporter; test: Checkerboard combination assay with doxorubicin; format: cell-based, human; settings: for drug interaction with doxorubicin: Colo320, at certain concentrations
Description: A checkerboard microplate method was applied to study the effect of drug interactions between the compounds and doxorubicin. The assay was carried out using multidrug-resistant Colo 320 colonic adenocarcinoma cells expressing the ABCB1 transporter. The final concentration of the chemotherapeutic agent doxorubicin used in the combination experiment was chosen in accordance with their antiproliferative activity previously determined. The dilutions of the chemotherapeutic drug were made in a horizontal direction in 100 μL, and the dilutions of the compounds vertically in the microtitre plate in 50 μL volume. The cells were re-suspended in culture medium and distributed into each well in 50 μL containing 6 × 10^3 cells each. The plates were incubated for 72 h at 37 °C in 5% CO2 atmosphere. The cell growth rate was determined after MTT staining. At the end of the incubation period, 20 μL of MTT (thiazolyl blue tetrazolium bromide, Sigma) solution (from a stock solution of 5 mg/mL) was added to each well. After incubation at 37 °C for 4 h, 100 μL of SDS (Sigma-Aldrich, St. Louis, MO, USA) solution (10% in 0.01 M HCl; Merck, Darmstadt, Germany) were added to each well and the plates were further incubated at 37 °C overnight. OD was measured at 540/630 nm with Multiscan EX ELISA reader (Thermo Labsystems, Cheshire, WA). Combination index (CI) values at 50% of the growth inhibition dose (ED50), were determined using CompuSyn software (ComboSyn, Inc., Paramus, NJ) to plot four to five data points to each ratio.

[6] = MTT cytotoxicity assay (24 h), MRC-5; format: cell-based; settings: human, MRC-5 embryonal lung fibroblast cells, 24 h incubation
Description: (§6) MRC-5 human embryonal lung fibroblast cell lines (ATCC CCL-171) were purchased from LGC Promochem, Teddington, UK. The cell line was cultured in Eagle’s Minimal Essential Medium (EMEM, containing 4.5 g/L glucose) supplemented with a non-essential amino acid mixture, a selection of vitamins and 10% heat-inactivated foetal bovine serum. The cell lines were incubated at 37 °C, in a 5% CO2, 95% air atmosphere.
as §2
(§7) The adherent human embryonal lung fibroblast cells were seeded overnight and cultured in 96-well flat-bottomed microtitre plates prior to the assay, using EMEM supplemented with 10% heat-inactivated foetal bovine serum. The density of the cells was adjusted to 6 × 10^3 cells (antiproliferative assay) or 1 × 10^4 cells (cytotoxicity assay) in 100 μL per well, the cells were seeded for 24 h at 37 °C, 5% CO2, then the medium was removed from the plates containing the cells, and the dilutions of compounds (200 µL) previously made in a separate plate were added to the cells in.
as §4, §5

[7] = tested on: MRC-5 human embryonal lung fibroblast cell line; test: MTT antiproliferative assay (72 h), MRC-5; format: cell-based
Description: as §6, §2, §7, §4, §5

MCF-7 mp53 cells = tested on: MCF-7 mp53 cells; design: method as in Sturgeon et al. [2005]; settings: ref Sturgeon et al. [2005]; cited from earlier work
NF-κB = tested on: NF-κB; design: method as in Sotillo et al. [2017]; settings: ref Sotillo et al. [2017]; cited from earlier work
[8] = tested on: breast cancer cell lines (MCF-7, JIMT-1 and HCC1937); design: method as in Sotillo et al. [2017]; settings: ref Sotillo et al. [2017]; cited from earlier work
[9] = Homo sapiens, COLO 205, 72 h incubation
[10] = Homo sapiens, MRC5, 72 h incubation

IC50 [1, 9] [µM] | IC50 ([3]; Homo sapiens, COLO 320, 72 h) [µM] | IC50 [3] [µM] | Compound | IC50 [2] [µM] | IC50 [4] [µM] | IC50 at 24 h [6] [µM] | IC50 [7, 10] [µM] | TNF-α-induced translocation of NF-κB (NF-κB) | cytotoxicity to breast cancer cell lines [8] | further results
> 100 | – | > 100 | C=C1C(=O)O[C@@H]2[C@H]1CCC(C)=C(CCC(=O)OC)[C@@]2(C)O [Compound 5, 1′-noraltamisin] | > 100 | > 100 | > 100 | > 100 | – | – | IC50 ([3]; listed as 1′-Noraltamisin): 8.78 µM; Type of interaction ([5]; starting concentration 30 µM, ratio 3.48:1): Antagonism; Type of interaction ([5]; starting concentration 30 µM, ratio 6.69:1): Additive effect; Type of interaction ([5]; starting concentration 30 µM, ratio 13.92:1): Slight synergism; Type of interaction ([5]; starting concentration 30 µM, ratio 27.84:1): Additive effect; Type of interaction ([5]; starting concentration 30 µM, ratio 55.68:1): Moderate antagonism; Type of interaction ([5]; starting concentration 30 µM, ratio 111.36:1): Additive effect
– | – | 5.29 ± 0.15 | C=C1C(=O)O[C@@H]2[C@H]1CCC(C)=C1CCC(=O)O[C@]12C [Compound 6, psilostachyin B] | – | – | – | – | – | – | IC50 ([1]; 72 h incubation): 11 ± 0.56 µM; selectivity index (SI), antiproliferative [3]: 4.98; Type of interaction ([5]; starting concentration 100 µM, ratio 11.6:1): Syn.; Type of interaction ([5]; starting concentration 100 µM, ratio 23.2:1): Syn.; Type of interaction ([5]; starting concentration 100 µM, ratio 46.4:1): Antagonism; Type of interaction ([5]; starting concentration 100 µM, ratio 92.8:1): Slight antagonism; Type of interaction ([5]; starting concentration 100 µM, ratio 185.6:1): Moderate ant.; Type of interaction ([5]; starting concentration 100 µM, ratio 371.2:1): Antagonism; IC50 ([7]; 72 h incubation): 26.4 ± 0.81 µM
17 ± 1.99 | 34.5 ± 2.07 | – | C=C1C(=O)O[C@@H]2[C@H]1CC[C@H](C)[C@H](CCC(=O)OC)[C@@]2(C)O [Compound 7, 1,10-dihydro-1′-noraltamisin] | 86.6 ± 1.06 | 53.6 ± 0.87 | > 100 | 39.8 ± 0.53 | – | – | drug interaction with doxorubicin [5]: synergistic effects; Type of interaction ([5]; starting concentration 150 µM, ratio 17.42:1): Very strong syn.; Type of interaction ([5]; starting concentration 150 µM, ratio 34.84:1): Moderate syn.; Type of interaction ([5]; starting concentration 150 µM, ratio 69.68:1): Moderate syn.; Type of interaction ([5]; starting concentration 150 µM, ratio 139.36:1): Moderate syn.; Type of interaction ([5]; starting concentration 150 µM, ratio 278.72:1): Moderate syn.; Type of interaction ([5]; starting concentration 150 µM, ratio 557.44:1): Syn.
66.8 ± 0.96 | 50.4 ± 2.98 | – | COc1c(O)cc2oc(-c3ccc(O)c(O)c3)c(OC)c(=O)c2c1O [Compound 8, axillarin] | > 100 | > 100 | > 100 | 4.03 ± 0.56 | – | – | drug interaction with doxorubicin [5]: synergistic effects
0.24 ± 0.03 | 0.14 ± 0.03 | – | COc1cccc2c1C(=O)c1c(O)c3c(c(O)c1C2=O)C[C@@](O)(C(=O)CO)C[C@@H]3O[C@H]1C[C@H](N)[C@H](O)[C@H](C)O1 [Doxorubicin, doxorubicin, reference compound] | – | – | – | 0.53 ± 0.06 | – | – | –

Further lines, the molecule ahead of its results:

Compound | IC50 [1, 9] [µM] | IC50 ([3]; Homo sapiens, COLO 320, 72 h) [µM] | IC50 [3] [µM] | IC50 [2] [µM] | IC50 [4] [µM] | IC50 at 24 h [6] [µM] | IC50 [7, 10] [µM] | TNF-α-induced translocation of NF-κB (NF-κB) | cytotoxicity to breast cancer cell lines [8] | further results
C=C1C(=O)O[C@@H]2C[C@H](C)[C@]3(O)CCC(=O)[C@@]3(C)C[C@H]12 [Compound 3, peruvin] | 26.4 ± 1.12 | 21.2 ± 0.72 | – | 82.4 ± 1.17 | 64.4 ± 1.78 | 11.9 ± 1.45 | 26.4 ± 1.3 | – | – | Type of interaction ([5]; starting concentration 65 µM, ratio 7.54:1): Moderate antagonism; Type of interaction ([5]; starting concentration 65 µM, ratio 15.08:1): Antagonism; Type of interaction ([5]; starting concentration 65 µM, ratio 30.16:1): Antagonism; Type of interaction ([5]; starting concentration 65 µM, ratio 60.32.1): Moderate antagonism; Type of interaction ([5]; starting concentration 65 µM, ratio 120.64:1): Antagonism; Type of interaction ([5]; starting concentration 65 µM, ratio 241.28:1): Additive effect
C=C1C(=O)O[C@@H]2[C@H]1CC[C@H](C)[C@]1(CCC(=O)O1)[C@@]2(C)O [Compound 4, psilostachyin] | 14.4 ± 1 | 5.29 | 8.78 ± 0.22 | – | 42.4 ± 2.37 | 41.8 ± 2.43 | 26.7 ± 0.51 | – | – | selectivity index (SI), antiproliferative [3]: 3.04; Type of interaction ([5]; starting concentration 25 µM, ratio 2.9:1): Additive effect; Type of interaction ([5]; starting concentration 25 µM, ratio 5.8:1): Moderate antagonism; Type of interaction ([5]; starting concentration 25 µM, ratio 11.6:1): Synergism; Type of interaction ([5]; starting concentration 25 µM, ratio 23.2:1): Antagonism; Type of interaction ([5]; starting concentration 25 µM, ratio 46.4:1): Moderate antagonism; Type of interaction ([5]; starting concentration 25 µM, ratio 92.2:1): Slight antagonism; effect on mitosis of MCF-7 mp53 cells (G2 checkpoint inhibitors) (MCF-7 mp53 cells): blocked MCF-7 mp53 cells in mitosis
C=C1C(=O)O[C@@H]2[C@H]1CC[C@H](C)[C@@H]1C=CC(=O)[C@@]21C [ambrosin] | – | – | – | – | – | – | – | inhibited | cytotoxic | –
C=C1C(=O)O[C@@H]2[C@H]1CC[C@H](C)[C@]1(O)CCC(=O)[C@@]21C [coronopilin] | – | – | – | – | – | – | – | inhibited | cytotoxic | –
C=C1C(=O)O[C@@H]2[C@H]1CC[C@H](C)[C@@H]1CCC(=O)[C@@]21C [damsin] | – | – | – | – | – | – | – | inhibited | cytotoxic | –

Source: paper PMC9377253, “Antiproliferative and cytotoxic effects of sesquiterpene lactones isolated from Ambrosia artemisiifolia on human adenocarcinoma and normal cell lines” (Pharmaceutical Biology, 2022)
